In patent US20230085307A1, “PYRIDAZINONE COMPOUND AND HERBICIDE” (NISSAN CHEMICAL CORPORATION, priority 2019, published 2023):

Columns and labels:
[1] = system: late watergrass; assay: Test Example 1: herbicidal activity, application before weed generation under submerged conditions (Table 16, symbol A); type: in vivo, late watergrass (Echinochloa oryzicola); settings: 320 g/ha applied herbicide
How it was run: (§1)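 Submerged Wagner pots (alluvial soil, 4 cm water) sown with weed seeds and planted with 2.5-leaf rice seedlings; emulsifiable concentrate diluted in water applied to water surface on sowing day. Held in greenhouse at 25-30 °C; injury scored 0-5 by herbicidal rate after three weeks.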

[2] = system: Japanese bulrush; assay: Test Example 1: herbicidal activity, application before weed generation under submerged conditions (Table 16, symbol B); type: in vivo, Japanese bulrush (Schoenoplectus juncoides); settings: 320 g/ha applied herbicide
How it was run: as §1

[3] = system: oval-leafed pondweed; assay: Test Example 1: herbicidal activity, application before weed generation under submerged conditions (Table 16, symbol C); type: in vivo, oval-leafed pondweed (Monochoria vaginalis); settings: 320 g/ha applied herbicide
How it was run: as §1

[4] = system: barnyard grass; assay: Test Example 3: herbicidal effect by foliage application, Wagner pot (Table 18, symbol H); type: in vivo, barnyard grass (Echinochloa crus-galli); settings: amount of applied herbicide 320 g/ha
How it was run: (§2)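 Plants were sown in alluvial soil held under 0.1–0.5 cm standing water and grown 14 days in a greenhouse at 25–30 °C. An emulsifiable formulation, water-diluted to the set dose, was then sprayed onto the foliage, and effects were scored three weeks later using previously defined criteria.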

[5] = system: Chinese sprangletop; assay: Test Example 3: herbicidal effect by foliage application, Wagner pot (Table 18, symbol D); type: in vivo, chinese sprangletop (Leptochloa chinensis); settings: amount of applied herbicide 320 g/ha
How it was run: as §2

[6] = system: rice flat sedge; assay: Test Example 3: herbicidal effect by foliage application, Wagner pot (Table 18, symbol E); type: in vivo, rice flat sedge (Cyperus iria); settings: amount of applied herbicide 320 g/ha
How it was run: as §2

[7] = system: southern crabgrass; assay: Test Example 4: herbicidal effect by soil treatment (Table 19, symbol F); type: in vivo, southern crabgrass (Digitaria ciliaris); settings: amount of applied herbicide 320 g/ha
How it was run: (§3)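 Applied as a water-diluted emulsion, the compound was sprayed onto soil covering newly sown seeds. Evaluation came three weeks after application, in a greenhouse held at 25° C. to 30° C.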

[8] = system: green foxtail; assay: Test Example 4: herbicidal effect by soil treatment (Table 19, symbol G); type: in vivo, green foxtail (Setaria viridis); settings: amount of applied herbicide 320 g/ha
How it was run: as §3

[9] = system: barnyard grass; assay: Test Example 4: herbicidal effect by soil treatment (Table 19, symbol H); type: in vivo, barnyard grass (Echinochloa crus-galli); settings: amount of applied herbicide 320 g/ha
How it was run: as §3

[10] = system: wild oat; assay: Test Example 4: herbicidal effect by soil treatment (Table 19, symbol I); type: in vivo, wild oat (Avena fatua); settings: amount of applied herbicide 320 g/ha
How it was run: as §3

[11] = system: Italian ryegrass; assay: Test Example 4: herbicidal effect by soil treatment (Table 19, symbol K); type: in vivo, Italian ryegrass (Lolium multiflorum); settings: amount of applied herbicide 320 g/ha
How it was run: as §3

[12] = system: windgrass; assay: Test Example 4: herbicidal effect by soil treatment (Table 19, symbol L); type: in vivo, windgrass (Apera spica-venti); settings: amount of applied herbicide 320 g/ha
How it was run: as §3

[13] = system: velvetleaf; assay: Test Example 4: herbicidal effect by soil treatment (Table 19, symbol M); type: in vivo, velvetleaf (Abutilon theophrasti); settings: amount of applied herbicide 320 g/ha
How it was run: as §3

[14] = system: redroot pigweed; assay: Test Example 4: herbicidal effect by soil treatment (Table 19, symbol N); type: in vivo, redroot pigweed (Amaranthus retroflexus); settings: amount of applied herbicide 320 g/ha
How it was run: as §3

[15] = system: lambsquarters; assay: Test Example 4: herbicidal effect by soil treatment (Table 19, symbol O); type: in vivo, lambsquarters (Chenopodium album); settings: amount of applied herbicide 320 g/ha
How it was run: as §3

[16] = system: false cleavers; assay: Test Example 4: herbicidal effect by soil treatment (Table 19, symbol Q); type: in vivo, false cleavers (Galium spurium); settings: amount of applied herbicide 320 g/ha
How it was run: as §3

[17] = system: persian speedwell; assay: Test Example 4: herbicidal effect by soil treatment (Table 19, symbol R); type: in vivo, Persian speedwell (Veronica persica); settings: amount of applied herbicide 320 g/ha
How it was run: as §3

[18] = system: southern crabgrass; assay: Test Example 5: herbicidal effect by foliage application, plastic box (Table 20, symbol F); type: in vivo, southern crabgrass (Digitaria ciliaris); settings: foliage application, AAH 320 g/ha, evaluated three weeks after application
How it was run: (§4)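 Sow seeds spot-wise in sterilized diluvial soil; cover with ~1.5 cm soil. Grow 14 days in greenhouse, 25° C. to 30° C. Spray foliage with emulsion diluted to predetermined amount. Rate effect after 3 weeks.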

[19] = system: green foxtail; assay: Test Example 5: herbicidal effect by foliage application, plastic box (Table 20, symbol G); type: in vivo, green foxtail (Setaria viridis); settings: foliage application, AAH 320 g/ha, evaluated three weeks after application
How it was run: as §4

[20] = system: barnyard grass; assay: Test Example 5: herbicidal effect by foliage application, plastic box (Table 20, symbol H); type: in vivo, barnyard grass (Echinochloa crus-galli); settings: foliage application, AAH 320 g/ha, evaluated three weeks after application
How it was run: as §4

[21] = system: wild oat; assay: Test Example 5: herbicidal effect by foliage application, plastic box (Table 20, symbol I); type: in vivo, wild oat (Avena fatua); settings: foliage application, AAH 320 g/ha, evaluated three weeks after application
How it was run: as §4

[22] = system: blackgrass; assay: Test Example 5: herbicidal effect by foliage application, plastic box (Table 20, symbol J); type: in vivo, blackgrass (Alopecurus myosuroides); settings: foliage application, AAH 320 g/ha, evaluated three weeks after application
How it was run: as §4

[23] = system: Italian ryegrass; assay: Test Example 5: herbicidal effect by foliage application, plastic box (Table 20, symbol K); type: in vivo, Italian ryegrass (Lolium multiflorum); settings: foliage application, AAH 320 g/ha, evaluated three weeks after application
How it was run: as §4

[24] = system: windgrass; assay: Test Example 5: herbicidal effect by foliage application, plastic box (Table 20, symbol L); type: in vivo, windgrass (Apera spica-venti); settings: foliage application, AAH 320 g/ha, evaluated three weeks after application
How it was run: as §4

[25] = system: velvetleaf; assay: Test Example 5: herbicidal effect by foliage application, plastic box (Table 20, symbol M); type: in vivo, velvetleaf (Abutilon theophrasti); settings: foliage application, AAH 320 g/ha, evaluated three weeks after application
How it was run: as §4

[26] = system: redroot pigweed; assay: Test Example 5: herbicidal effect by foliage application, plastic box (Table 20, symbol N); type: in vivo, redroot pigweed (Amaranthus retroflexus); settings: foliage application, AAH 320 g/ha, evaluated three weeks after application
How it was run: as §4

[27] = system: lambsquarters; assay: Test Example 5: herbicidal effect by foliage application, plastic box (Table 20, symbol O); type: in vivo, lambsquarters (Chenopodium album); settings: foliage application, AAH 320 g/ha, evaluated three weeks after application
How it was run: as §4

[28] = system: chickweed; assay: Test Example 5: herbicidal effect by foliage application, plastic box (Table 20, symbol P); type: in vivo, common chickweed (Stellaria media); settings: foliage application, AAH 320 g/ha, evaluated three weeks after application
How it was run: as §4

[29] = system: persian speedwell; assay: Test Example 5: herbicidal effect by foliage application, plastic box (Table 20, symbol R); type: in vivo, Persian speedwell (Veronica persica); settings: foliage application, AAH 320 g/ha, evaluated three weeks after application
How it was run: as §4

[30] = system: blackgrass; assay: Test Example 4: herbicidal effect by soil treatment (Table 19, symbol J); type: in vivo, blackgrass (Alopecurus myosuroides); settings: amount of applied herbicide 320 g/ha
How it was run: as §3

| SMILES | Herbicidal effect on A: late watergrass (grade 0-5) [1] | Herbicidal effect on B: Japanese bulrush (grade 0-5) [2] | Herbicidal effect on C: oval-leafed pondweed (grade 0-5) [3] | herbicidal effect on H: barnyard grass [4] | herbicidal effect on D: Chinese sprangletop [5] | herbicidal effect on E: rice flat sedge [6] | herbicidal effect on F: southern crabgrass [7] | herbicidal effect on G: green foxtail [8] | herbicidal effect on H: barnyard grass [9] | herbicidal effect on I: wild oat [10] | herbicidal effect on K: Italian ryegrass [11] | herbicidal effect on L: windgrass [12] | herbicidal effect on M: velvetleaf [13] | herbicidal effect on N: redroot pigweed [14] | herbicidal effect on O: lambsquarters [15] | herbicidal effect on Q: false cleavers [16] | herbicidal effect on R: persian speedwell [17] | F: southern crabgrass, herbicidal effect (criteria 0-5) [18] | G: green foxtail, herbicidal effect (criteria 0-5) [19] | H: barnyard grass, herbicidal effect (criteria 0-5) [20] | also measured |
| --- | --- | --- | --- | --- | --- | --- | --- | --- | --- | --- | --- | --- | --- | --- | --- | --- | --- | --- | --- | --- | --- |
| Cc1nn(C)c(=O)c(-c2c(-c3ccc(SCC(F)F)cc3)sc3ccc(F)cc23)c1O [2-260] | 3 (Herbicidal rate of 40% or more and less than 70%) | 0 (Herbicidal rate of 5% or less (almost no effect)) | 0 (Herbicidal rate of 5% or less (almost no effect)) | 5 (Herbicidal rate of 90% or more (almost completely withered)) | 3 (Herbicidal rate of 40% or more and less than 70%) | 3 (Herbicidal rate of 40% or more and less than 70%) | 4 (Herbicidal rate of 70% or more and less than 90%) | 5 (Herbicidal rate of 90% or more (almost completely withered)) | 3 (Herbicidal rate of 40% or more and less than 70%) | 0 (Herbicidal rate of 5% or less (almost no effect)) | 0 (Herbicidal rate of 5% or less (almost no effect)) | 0 (Herbicidal rate of 5% or less (almost no effect)) | 3 (Herbicidal rate of 40% or more and less than 70%) | 5 (Herbicidal rate of 90% or more (almost completely withered)) | 5 (Herbicidal rate of 90% or more (almost completely withered)) | 0 (Herbicidal rate of 5% or less (almost no effect)) | 3 (Herbicidal rate of 40% or more and less than 70%) | 5 (Herbicidal rate of 90% or more (almost completely withered)) | 5 (Herbicidal rate of 90% or more (almost completely withered)) | 5 (Herbicidal rate of 90% or more (almost completely withered)) | I: wild oat, herbicidal effect (criteria 0-5) [21]: 5 (Herbicidal rate of 90% or more (almost completely withered)); J: blackgrass, herbicidal effect (criteria 0-5) [22]: 4 (Herbicidal rate of 70% or more and less than 90%); K: Italian ryegrass, herbicidal effect (criteria 0-5) [23]: 5 (Herbicidal rate of 90% or more (almost completely withered)); L: windgrass, herbicidal effect (criteria 0-5) [24]: 5 (Herbicidal rate of 90% or more (almost completely withered)); M: velvetleaf, herbicidal effect (criteria 0-5) [25]: 4 (Herbicidal rate of 70% or more and less than 90%); N: redroot pigweed, herbicidal effect (criteria 0-5) [26]: 5 (Herbicidal rate of 90% or more (almost completely withered)); O: lambsquarters, herbicidal effect (criteria 0-5) [27]: 5 (Herbicidal rate of 90% or more (almost completely withered)); P: chickweed, herbicidal effect (criteria 0-5) [28]: 5 (Herbicidal rate of 90% or more (almost completely withered)); R: persian speedwell, herbicidal effect (criteria 0-5) [29]: 5 (Herbicidal rate of 90% or more (almost completely withered)) |
| Cc1nn(C)c(=O)c(-c2c(-c3cccc(OCc4ccccc4)c3)sc3ccc(F)cc23)c1O [2-267] | 2 (Herbicidal rate of 20% or more and less than 40%) | 0 (Herbicidal rate of 5% or less (almost no effect)) | 0 (Herbicidal rate of 5% or less (almost no effect)) | 5 (Herbicidal rate of 90% or more (almost completely withered)) | 5 (Herbicidal rate of 90% or more (almost completely withered)) | 3 (Herbicidal rate of 40% or more and less than 70%) | 5 (Herbicidal rate of 90% or more (almost completely withered)) | 3 (Herbicidal rate of 40% or more and less than 70%) | 5 (Herbicidal rate of 90% or more (almost completely withered)) | 0 (Herbicidal rate of 5% or less (almost no effect)) | 0 (Herbicidal rate of 5% or less (almost no effect)) | 0 (Herbicidal rate of 5% or less (almost no effect)) | 0 (Herbicidal rate of 5% or less (almost no effect)) | 2 (Herbicidal rate of 20% or more and less than 40%) | 0 (Herbicidal rate of 5% or less (almost no effect)) | 0 (Herbicidal rate of 5% or less (almost no effect)) | 4 (Herbicidal rate of 70% or more and less than 90%) | 4 (Herbicidal rate of 70% or more and less than 90%) | 5 (Herbicidal rate of 90% or more (almost completely withered)) | 5 (Herbicidal rate of 90% or more (almost completely withered)) | herbicidal effect on J: blackgrass [30]: 0 (Herbicidal rate of 5% or less (almost no effect)); I: wild oat, herbicidal effect (criteria 0-5) [21]: 0 (Herbicidal rate of 5% or less (almost no effect)); J: blackgrass, herbicidal effect (criteria 0-5) [22]: 2 (Herbicidal rate of 20% or more and less than 40%); K: Italian ryegrass, herbicidal effect (criteria 0-5) [23]: 3 (Herbicidal rate of 40% or more and less than 70%); L: windgrass, herbicidal effect (criteria 0-5) [24]: 0 (Herbicidal rate of 5% or less (almost no effect)); M: velvetleaf, herbicidal effect (criteria 0-5) [25]: 3 (Herbicidal rate of 40% or more and less than 70%); N: redroot pigweed, herbicidal effect (criteria 0-5) [26]: 4 (Herbicidal rate of 70% or more and less than 90%); O: lambsquarters, herbicidal effect (criteria 0-5) [27]: 4 (Herbicidal rate of 70% or more and less than 90%); P: chickweed, herbicidal effect (criteria 0-5) [28]: 5 (Herbicidal rate of 90% or more (almost completely withered)); R: persian speedwell, herbicidal effect (criteria 0-5) [29]: 5 (Herbicidal rate of 90% or more (almost completely withered)) |
